Series [1] deals with HIV-1 Gag-GFP secretion, U937. The series can be described thus: HIV-1 Gag-GFP induced secretion, fluorescent plate reader assay. Particulars: U937, HIV-1 Gag-GFP (sM1 column head prints GFP/sM1), 0.5 μg peptide, 48 hours. Format: cell-based. The method, then:
(§1) Cells were co-transfected with 0.5 μg of pQBI-HIV Gag-GFP (expresses wild type Gag protein) and either 0.5 μg of HIV-1 Nef SMRwt, SMRmut peptide, sM1 peptide or untransfected controls with Chariot for 48 hours. The conditioned supernatants from these cultures were assayed for GFP fluorescence by plate reader.

Series [2] relates to HIV-1 Gag-GFP secretion, THP-1. The series is described as above. It is filed as cell-based. Particulars: THP-1, HIV-1 Gag-GFP (sM1 column head prints GFP/sM1), 0.5 μg peptide, 48 hours. On the procedure:
as §1

The subject of series [3] is HIV-1 Gag-GFP secretion, Jurkat. Described as above. It is filed as cell-based. The conditions noted are these: HIV-1 Gag-GFP (sM1 column head prints GFP/sM1), 0.5 μg peptide, 48 hours. On the procedure:
as §1

For series [4], the system named is HIV-1 Gag-GFP secretion, HEK293. Described as above. Particulars: HEK293, HIV-1 Gag-GFP (sM1 column head prints GFP/sM1), 0.5 μg peptide, 48 hours. Format: cell-based. On the procedure:
as §1

The subject of series [5] is pNL4-3 in 293 cells. Put plainly: p24 assay of virion production after pNL4-3 co-transfection. It is filed as cell-based, HIV. The conditions noted are these: for p24: co-transfected with pNL4-3; for Effect (a/b): p24 of sample / p24 of pNL4-3 + sM1. The method, then: (§2) pNL4-3 is a clone containing the viral genome. Transfection into cells allows expression of the viral genome and ultimately virion formation and release. The amount of virion production in the extracellular supernatant is measured through p24 protein (viral protein). Samples were collected at 48 hours and 96 hours post-infection.
(§3) At 48 hr postinfection two plates in each group were removed and analyzed by: • a. p24 assay • b. Nef assay • c. Infectivity assay • At 96 hr postinfection the other two plates in each group were removed and analyzed by: • a. p24 assay • b. Nef assay • c. Infectivity assay

The test system of series [6] is HIV-1 Nef-GFP secretion, cell line H. Put plainly: HIV-1 Nef-GFP induced secretion, fluorescent plate reader assay. Format: cell-based. The conditions noted are these: HIV-1 Nef-GFP (sM1 column head prints GFP/sM1).
The test system of series [7] is pNL4-3 in Jurkat cells. Put plainly: p24 assay of virion production after pNL4-3 co-transfection. Format: cell-based, HIV. The conditions noted are these: Jurkat; for p24: co-transfected with pNL4-3; for Effect (a/b): p24 of sample / p24 of pNL4-3 + sM1. The method, then:
I. Jurkat cells were co-transfected as shown below: (transfection efficiency 30-40% by Chariot Kit):
as §2, §3

Series [8] deals with NefGFP release from HEK293 cells. Put plainly: Nef-GFP co-transfection secretion assay, GFP fluorescence of supernatant. It is filed as cell-based. Particulars: HEK293, 0.5 μg Nef-GFP + 0.5 μg peptide, Chariot, 48 h; relative to NefGFP+sM1 (100%). The method, then:
Therefore, a set of co-transfection experiments were performed. HEK293 cells were co-transfected with 0.5 μg of pQBI-HIV Nef-GFP (expresses wild type Nef protein) and either 0.5 μg of HIV-1 Nef SMRwt or SMRmut peptide or sM1 peptide (a totally random control peptide, ALAETCQNAWA (SEQ ID NO: 7)) with Chariot. Briefly, the wild-type Nef-GFP clone and the SMR peptides were complexed with Chariot reagent for 30 minutes at RT. The DNA/peptide/Chariot complex was added to HEK293 cells in serum-free media, and the cells were plated. Following incubation for 2 hours at 37° C., media with serum was added to the dish, and the cells were incubated at 37° C. for 48 h. The media was then collected and assayed for secretion using a spectrofluorimeter. The conditioned supernatants from these cultures were assayed for GFP fluorescence by plate reader.

In series [9] the test system is Gag-GFP + HIV-1wtNef-RFP secretion, Jurkat. The series can be described thus: Gag-GFP secretion in presence of wtNef-RFP, fluorescent plate reader assay. Particulars: Jurkat, Gag-GFP + HIV-1wtNef-RFP + peptide, 48 hours. It is filed as cell-based. On the procedure:
(§4) Cells were transfected with the pQBI-HIV Gag-GFP construct, wtNef-RFP, and either the antagonist (SMRwt peptide), the negative control SMRmt peptide, or a random peptide sM1 with Chariot for 48 hours. The conditioned supernatants from these cultures were assayed for GFP fluorescence by plate reader.

In series [10] the test system is Gag-GFP + HIV-1wtNef-RFP secretion, THP-1 Monocyte. The description is as above. The conditions noted are these: Gag-GFP + HIV-1wtNef-RFP + peptide, 48 hours. Format: cell-based. On the procedure: as §4
Series [11] concerns the target Mortalin (Homo sapiens, UniProt P38646). The conditions noted are these: literature; inactivates chaperone function; cited from earlier work.
For series [12] the following is noted: lower doses could be less toxic; cited from earlier work.
Series [13] deals with human tumor cell lines. Particulars: cited from earlier work.

We go through 2 compounds from patent US8431530B2, “Compositions and methods for treating aids or cancer by inhibiting the secretion of microparticles” (priority 2009, dated 2013).

Chain of Mortalin (P38646 47-679): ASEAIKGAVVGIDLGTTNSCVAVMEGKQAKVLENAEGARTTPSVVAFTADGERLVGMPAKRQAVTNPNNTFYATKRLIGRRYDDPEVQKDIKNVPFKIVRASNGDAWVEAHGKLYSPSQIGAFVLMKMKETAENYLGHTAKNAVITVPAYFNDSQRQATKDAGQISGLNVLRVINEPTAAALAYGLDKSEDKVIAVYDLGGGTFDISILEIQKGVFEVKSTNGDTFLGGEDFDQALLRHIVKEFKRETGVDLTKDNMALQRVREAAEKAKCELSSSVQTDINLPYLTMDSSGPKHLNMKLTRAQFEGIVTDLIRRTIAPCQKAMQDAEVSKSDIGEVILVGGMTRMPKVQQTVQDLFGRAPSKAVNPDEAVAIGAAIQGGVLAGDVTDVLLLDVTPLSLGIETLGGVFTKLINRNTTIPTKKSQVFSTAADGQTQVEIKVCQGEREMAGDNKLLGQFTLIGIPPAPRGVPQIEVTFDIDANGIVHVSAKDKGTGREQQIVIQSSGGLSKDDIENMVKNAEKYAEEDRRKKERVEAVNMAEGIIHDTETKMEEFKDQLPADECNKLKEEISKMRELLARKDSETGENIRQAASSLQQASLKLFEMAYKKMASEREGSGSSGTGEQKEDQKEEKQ

“ALAETCQNAWA [sM1, a totally random control peptide]”: the “Increase in Secretion (relative to untransfected cells), exp condition/UT” value stood at 1.05x in series [1]; 0.85x in [2]; 1.09x in [3]; 2.05x in series [4]; 1.05x in series [6]. For the same compound, the p24 in [5] (293, 48 hr) is 45 pg/mL; in [5] (293, 96 hr), 960 pg/mL; in series [7] (48 hr), 0 pg/mL; in [7] (96 hr) it was 30 pg/mL. Besides, the “Effect (a/b)” value in series [5] (293, 48 hr) is recorded as 1.0; in series [5] (293, 96 hr), 1; in [7] (48 hr), 1; in series [7] (96 hr), 1. In addition, the “release of NefGFP into the extracellular supernatant (GFP fluorescence)” value in series [8] is on record as “no effect”. Besides, the “Secretion relative to untransfected cells” value is on record as 61.99x in [9] (first line), 40.36x in [9] (second line (not explained)), 43.11x in series [10] (first line) and 20.51x in series [10] (second line (not explained)).

For the compound `CCn1c(=O)/c(=C2\Sc3ccccc3N2C)s/c1=C\c1cccc[n+]1CC.[Cl-]` [MKT-077], in [11], the “binding to Mortalin” value was “binds to the nucleotide-binding domain (NBD) of Mortalin”. Besides, the “toxicity in clinical trials” value in series [12] was “renal toxicity”. Further, in series [13] (literature (Deocaris et al. 2007)), the “death of cancer cells” value is listed as “causes selective death of cancer cells”. Moreover, the “senescence in human tumor cell lines” value in [13] (literature) is listed as “inducing senescence”.
